# Data taken from ChEMBL document CHEMBL1142762, “Identification of 4-methyl-1,2,3,4,10,10a-hexahydropyrazino[1,2-a]indoles as 5-HT2C receptor agonists” (Bioorg Med Chem Lett, 2005).
# Columns and labels:
# [1] = molecular target: 5-hydroxytryptamine receptor 2B (Homo sapiens, UniProt P41595); assay: Binding affinity toward 5-HT2B receptor evaluated by displacement of [3H]5-HT radioligand
# [2] = molecular target: 5-hydroxytryptamine receptor 2A (Homo sapiens, UniProt P28223); assay: Binding affinity toward 5-HT2A receptor evaluated by displacement of [125I]DOI radioligand
# Sequence of 5-hydroxytryptamine receptor 2A (P28223 whole entry): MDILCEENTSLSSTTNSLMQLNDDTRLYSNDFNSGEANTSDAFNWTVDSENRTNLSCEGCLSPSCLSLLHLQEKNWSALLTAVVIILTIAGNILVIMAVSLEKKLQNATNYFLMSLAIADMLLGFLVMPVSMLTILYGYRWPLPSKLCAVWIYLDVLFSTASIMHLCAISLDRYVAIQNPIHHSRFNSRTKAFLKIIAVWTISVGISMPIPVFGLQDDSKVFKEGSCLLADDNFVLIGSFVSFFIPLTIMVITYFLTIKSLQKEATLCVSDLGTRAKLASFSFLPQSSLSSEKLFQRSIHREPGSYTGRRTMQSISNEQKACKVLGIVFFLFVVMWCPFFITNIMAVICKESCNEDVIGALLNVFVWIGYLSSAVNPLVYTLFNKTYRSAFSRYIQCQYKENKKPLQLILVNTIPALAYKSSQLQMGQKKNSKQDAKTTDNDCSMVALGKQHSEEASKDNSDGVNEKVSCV
# [3] = molecular target: T1, 5-hydroxytryptamine receptor 2C (Homo sapiens, UniProt P28335); assay: Binding affinity toward 5-HT2C receptor evaluated by displacement of [3H]5-HT radioligand
# T1 sequence (P28335 whole entry): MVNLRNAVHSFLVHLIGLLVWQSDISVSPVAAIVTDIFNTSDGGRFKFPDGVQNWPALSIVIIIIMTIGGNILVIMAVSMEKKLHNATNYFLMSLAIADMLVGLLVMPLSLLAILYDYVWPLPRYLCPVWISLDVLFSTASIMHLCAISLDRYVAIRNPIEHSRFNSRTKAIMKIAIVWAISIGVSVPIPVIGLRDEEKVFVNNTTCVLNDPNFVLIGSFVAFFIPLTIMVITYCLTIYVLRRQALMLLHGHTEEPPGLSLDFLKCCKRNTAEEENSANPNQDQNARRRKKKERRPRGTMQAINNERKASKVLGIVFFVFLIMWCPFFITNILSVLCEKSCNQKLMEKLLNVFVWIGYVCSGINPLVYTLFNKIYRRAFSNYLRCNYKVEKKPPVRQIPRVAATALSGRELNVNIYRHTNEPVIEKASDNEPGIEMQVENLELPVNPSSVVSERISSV
# [4] = molecular target: T2, 5-hydroxytryptamine receptor 2C (Homo sapiens) (UniProt P28335); assay: Relative efficacy toward 5-HT2C receptor
# T2 sequence (whole entry): T1 sequence (P28335 whole entry)
# Sequence of 5-hydroxytryptamine receptor 2B (P41595 whole entry): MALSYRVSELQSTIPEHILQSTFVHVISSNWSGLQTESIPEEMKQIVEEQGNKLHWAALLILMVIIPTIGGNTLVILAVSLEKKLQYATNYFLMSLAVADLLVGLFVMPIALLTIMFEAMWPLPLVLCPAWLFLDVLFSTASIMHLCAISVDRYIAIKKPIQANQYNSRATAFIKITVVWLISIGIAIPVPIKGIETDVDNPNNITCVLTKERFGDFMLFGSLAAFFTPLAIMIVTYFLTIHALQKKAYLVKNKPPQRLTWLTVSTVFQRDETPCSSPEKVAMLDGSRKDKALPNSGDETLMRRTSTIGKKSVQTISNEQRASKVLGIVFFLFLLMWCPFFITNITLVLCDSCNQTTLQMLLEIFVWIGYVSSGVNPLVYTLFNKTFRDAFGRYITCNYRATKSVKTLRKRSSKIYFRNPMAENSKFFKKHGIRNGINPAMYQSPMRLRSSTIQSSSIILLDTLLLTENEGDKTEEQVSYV
SMILES,Ki [1],Ki [2],Ki [3],Efficacy [4]
Cc1ccc2c(c1)N1[C@@H](CNC[C@H]1C)C2,21 nM,22 nM,1.3 nM,100%
Clc1ccc2c(c1)N1CCNCC1C2 (stereo not drawn),53 nM,32 nM,31 nM,99%
C[C@@H]1CNC[C@H]2Cc3ccc(CO)cc3N21,250 nM,290 nM,34 nM,97%
C[C@@H]1CNC[C@H]2Cc3ccccc3N21,15 nM,1.9 nM,2.2 nM,97%
C[C@H]1CNC[C@@H]2Cc3ccccc3N21,2600 nM,430 nM,180 nM,62%
Cc1ccc2c(c1C)N1[C@H](CNC[C@H]1C)C2,67 nM,102 nM,9.5 nM,91%
Cc1cccc2c1N1[C@@H](CNC[C@H]1C)C2,59 nM,43 nM,2.6 nM,100%
Cc1c(Cl)ccc2c1N1CCNC[C@@H]1C2,140 nM,52 nM,32 nM,80%
C[C@@H]1CNC[C@@H]2Cc3ccccc3N21 (stereo in doubt; 7) [listing 1 of 2 here],,,,94%
Cc1c(Cl)ccc2c1N1CCNC[C@H]1C2,10 nM,6.2 nM,1.5 nM,90%
C[C@@H]1CNC[C@H]2Cc3ccc(C(F)(F)F)cc3N21,11 nM,7.5 nM,1.4 nM,94%
C[C@@H]1CNC[C@@H]2Cc3ccccc3N21 (stereo in doubt; 8) [listing 1 of 2 here],160 nM,61 nM,22 nM,
Cc1c(Cl)ccc2c1N1[C@H](CNC[C@H]1C)C2,19 nM,40 nM,1.9 nM,97%
CC(=O)Nc1ccc2c(c1)N1[C@@H](CNC[C@H]1C)C2,960 nM,1100 nM,680 nM,24%
C[C@@H]1CNC[C@H]2Cc3ccc(C#N)cc3N21,90 nM,110 nM,3.8 nM,77%
C[C@@H]1CNC[C@@H]2Cc3ccccc3N21 (stereo in doubt; 8) [listing 2 of 2 here],,,,87%
Cc1ccc2c(c1C)N1[C@@H](CNC[C@H]1C)C2,13 nM,34 nM,1.7 nM,96%
Cc1c(Cl)ccc2c1N1[C@@H](CNC[C@H]1C)C2,3.2 nM,2.6 nM,0.3 nM,98%
C[C@@H]1CNC[C@@H]2Cc3ccccc3N21 (stereo in doubt; 7) [listing 2 of 2 here],210 nM,55 nM,13 nM,
